Measurements as given in US20260083126A1, “ANTIMICROBIAL COMPOSITIONS” (AHV International B.V., priority 2022, published 2026).

Columns and labels:
[1] = system: Staphylococcus epidermidis ATCC 35984; experiment: MIC assay (growth inhibition of planktonic microorganisms); assay type: cell-based; conditions: 24 h at 37° C., MHB-II
Method: (§1) The exact weighed amount was noted and the volume of solvent to reach a 80 mM dilution calculated. Half of the volume was added first, by adding Tween 80 and let stand for 5 minutes. In a second step, the other half of the volume DMSO was added and resuspended to help the dilution process. The closed tube was inverted 5-10 times and then vortexed very thoroughly for at least 30 seconds. If after this procedure crystals were still visible, the tube was placed in a shaker at 37° C. at 150 rpm for at least 30 minutes (it is indicated if the dissolution period was longer than 2 h). […] In case of Bis(4-Chlorophenyl) thiosulfonate, a lower concentrated stock solution of 2 mM needed to be prepared. For that, the required amount of compound was weighed in and 2% v/v Tween80 and 2% v/v DMSO of the end volume of the stock solution was added to the substance. This mix was heated in a water bath set to 40° C. and occasionally shaken. When the whole amount of the substance reached dissolution, the volume was filled up with growth medium until the end volume. This 2 mM stock solution of Bis(4-Chlorophenyl) thiosulfonate was used in the MIC plate and diluted two-fold, resulting in a testing range of Bis(4-Chlorophenyl) thiosulfonate from 1 mM to 0.002 mM.
(§2) The microorganisms as indicated in Table 4 were used to inoculate a tryptic soy agar (TSA) plate and incubated overnight at 37° C. After incubation 3-5 well-isolated colonies with the same morphology were selected from the TSA plate and resuspended in 2 mL 0.9% saline solution with 3-6 glass beads and vortexed. The optical density at 600 nm (OD600) of the bacterial suspension was measured with a spectrophotometer (Evolution™ 201/220 UV-Visible Spectrophotometer, Thermo Fisher Scientific) and diluted to an OD600 of 0.0008, which resembles 10^6 CFU/mL.
(§3) The MIC assay was performed in a flat-bottom 96-microtiter plate. 50 μL of MHB-II was added into columns 2-11, and 100 μL to column 12 for sterility control. 100 μL of the 8 mM test compound solution (method 1) was added to column 1. A two-fold dilution series of the solution in MHB-II was achieved by resuspending 50 μL of the 8 mM solution from column 1 to column 2. This step was repeated until column 10. The respective concentration of Tween 80 and DMSO in column 1 was 2.5%, which is two-fold diluted throughout the plate. 50 μL of the bacterial suspension was added to column 1-11. The microtiter plates were sealed with adhesive polyethylene film for sealing microplates (Diversified Biotech) and incubated for 24 h at 37° C. After incubation the OD was measured at 600 nm with the Varioskan (Thermo Fisher Scientific). The minimal concentration which causes reduction of final OD600 of the bacterial culture by 50% (MIC50) and by 90% (MIC90) was calculated after normalization of the obtained OD values to the growth control in column 11. This assay was repeated three times in three independent experiments.

[2] = system: Pseudomonas aeruginosa ATCC 27853; experiment: as above; assay type: cell-based; conditions: 24 h at 37° C., MHB-II
Method: as §1, §2, §3
Hereafter, the stock solutions of the compounds were used in three repetitions in a minimal inhibitory concentration (MIC) assay at a 2-fold dilution range with various bacteria from the gram-positive and gram-negative group and a yeast, Candida albicans. The concentrations that show only less than 10% growth after 24 h were considered the MIC90-values, whereas the concentrations that show 50% growth after 24 h when compared to the bacterial growth control were considered the MIC50-values. Escherichia coli and Staphylococcus aureus were used as representatives for a gram-negative bacteria and gram-positive bacteria, respectively. Furthermore, the yeast C. albicans was also tested.
In an Eppendorf tube between 10-20 mg of the test compound was weighed. Hereafter, the required amount of Tween 80 was added, followed by the amount DMSO. After vigorous shaking, the dissolved and transparent dilutions were diluted 10 times with Mueller Hinton Broth (MHB) for the MIC assay. […]

[3] = system: Staphylococcus epidermis ATCC 35984 biofilm; experiment: MBEC assay (48 h biofilm, CFU log reduction); assay type: cell-based, Staphylococcus epidermidis; conditions: 20 h treatment, 0.125-1 mM tested
Method: (§4) For the MBEC assay (method 1.3) the solutions need to be diluted to a final concentration of 2 mM in 0.9% saline solution and then further diluted to 1 mM, 0.5 mM, 0.25 mM and 0.125 mM in saline. Those dilutions were added as treatment to the 96 well plates with the grown biofilm (see method 3) (0.5 mL needed for one strain). The dilution must stay transparent.
(§5) Frozen aliquots of Staphylococcus epidermis ATCC 35984 and Pseudomonas aeruginosa ATCC 27853 were used to inoculate 20 mL of Tryptic Soy Broth (TSB) in a 100 mL Erlenmeyer flask at 37° C. and 150 rpm and incubated overnight (Infors). The OD600 of the overnight culture was measured with a spectrophotometer (Evolution™ 201/220 UV-Visible Spectrophotometer, Thermo Fisher Scientific) and diluted to an ( ) 600 of 0.2, which resembles 10^8 CFU/mL. The cell suspension of OD600=0.2 was seeded into a U-bottom-shaped 96 well plates by pipetting 100 μL per well in column 1-11, column 12 was filled with 100 μL medium as sterility control. The 96 well plates were sealed with adhesive polyethylene film for sealing microplates and incubated for 48 h at 37° C. at static conditions. After the biofilm growth phase, 100 μL of treatment solutions (method 1) were added to the vials resulting in treatment concentrations of 1 mM, 0.5 mM, 0.25 mM and 0.125 mM and with the respective concentration of Tween 80 and DMSO each at 0.63%, 0.32%, 0.16% and 0.08%. The same concentration was applied to four different wells of the same bacterial strain, resulting in four replicates for each concentration and strain. The treatment was incubated for 20 h at 37° C. at static conditions. After the treatment the supernatant was carefully removed and the well with the biofilm washed carefully for one time with 200 μL 0.9% saline solution. 200 μL saline solution was added and the biofilm was resuspended thoroughly. When fully homogenized then 20 μl, was used for the first dilution in 180 μL 0.9% saline solution, which was prepared in a second plate. This dilution was continued until dilution step 10E-5 and 100 μL of the 10E-4 and 10E-5 dilution plated on a TSA plate. The TSA plates were incubated at 37° C. for 24 h. The colonies on the plates were enumerated, the colony forming units per ml, of the dispensed biofilm and averages thereof and the log reduction in comparison with the untreated sample from the same wells plate calculated. Reduction of colony forming units goes hand in hand with the thickness of the biofilm and thus with the number bacteria that are present in the biofilm. Therefore, a significant reduction of colony forming units in the biofilm was defined at the value of log reduction >1 or more. This assay was repeated two times in two independent experiments)

[4] = system: Pseudomonas aeruginosa ATCC 27853 biofilm; experiment: MBEC assay (48 h biofilm, CFU log reduction); assay type: cell-based; conditions: 20 h treatment, 0.125-1 mM tested
Method: as §4, §5

[5] = system: Staphylococcus aureus LUH14616; experiment: Resistance development on repeated exposure (19 passages); assay type: cell-based
Method: Experimental design. Potential resistance to AM-8 was assessed as described by Habets and Brockhurst (2012) (Therapeutic antimicrobial peptides may compromise natural immunity. Biol Lett 8:416-418). Briefly, log phase bacteria (S. aureus LUH 14616) were diluted in RPMI-mod to a concentration of 2×10^6 CFU/ml. Next, 50 μl of this bacterial suspension were mixed with 50 μl of a range of dilutions of AM-8 or—as comparator-rifampicin in v-bottom 96-wells plates. Thereafter, the plates were covered with a plastic seal and incubated for 24 hrs at 37° C. in a shaking incubator (200 rpm). The plates were then centrifuged for 5 min at 2,000 rpm and the growth inhibition was determined. To start the resistance development testing, 100 μl of a mid-log bacterial suspension containing 2×10^6 CFU/ml were mixed with 150 μl of RPMI-mod and 5 μl of this diluted bacterial suspension were applied to v-bottom wells containing a dilution range of AM-8 or antibiotics (various concentrations below and above MIC) in RPMI-mod (RPMI 1640 modified with 20 mM Hepes and L-glutamine and without sodium bicarbonate (Sigma-Aldrich); further referred to as RPMI-mod). After 24 hrs at 37° C. in a shaking incubator (200 rpm) the growth inhibition was determined. 100 μl of the bacterial suspension from the 0.5×MIC wells were mixed with 150 μl of RPMI-mod and 5 μl of the diluted bacterial suspension were used to inoculate a new 96-wells plate containing a dilution series of AM-8 or rifampicin, and these mixtures were then incubated as described above. If resistance developed, the concentration range of AM-8 and/or antibiotic was adjusted accordingly. This was repeated 19 times. Results are expressed as the fold-increase in MIC compared to the MIC at the start of the experiment.

[6] = reduction of final OD600 by 50%
[7] = reduction of final OD600 by 90%

| SMILES | S. epidermidis MIC50 [1, 6] [µM] | S. epidermidis MIC90 [1, 7] [µM] | P. aeruginosa MIC50 [2, 6] [µM] | P. aeruginosa MIC90 [2, 7] [µM] | S. epidermidis MBEC mM with log reduction ≥1 [3] [mM] | P. aeruginosa MBEC mM with log reduction ≥1 [4] [mM] | MIC50 ([1]; Staphylococcus epidermidis, ATCC35984, reduction of final OD600 by 50%, read-out: S. epidermidis MIC50) [µM] | MIC90 ([1]; Staphylococcus epidermidis, ATCC35984, reduction of final OD600 by 90%, read-out: S. epidermidis MIC90) [µM] | MIC50 ([2]; Pseudomonas aeruginosa, ATCC27853, 24 h, reduction of final OD600 by 50%, read-out: P. aeruginosa MIC50) [µM] | MIC90 ([2]; Pseudomonas aeruginosa, ATCC27853, reduction of final OD600 by 90%, read-out: P. aeruginosa MIC90) [µM] | fold-increase in MIC compared to the MIC at the start ([5]; after passage 10) [fold] | fold-increase in MIC compared to the MIC at the start ([5]; after the last passage) [fold] | fold-increase in MIC compared to the MIC at the start ([5]; at passages 4-5) [fold] |
| --- | --- | --- | --- | --- | --- | --- | --- | --- | --- | --- | --- | --- | --- |
| [O-][S+](Sc1ccc(Cl)cc1)c1ccc(Cl)cc1 (stereo not drawn) [Bis (4-chlorophenyl) thiosulfinate, Bis(4-chlorophenyl) thiosulfinate] | 20 | 20 | 20 | 20 | >1 | >1 |  |  |  |  |  |  |  |
| CC(C)SSC(C)C [Di-isopropyl disulfide, reference compound] |  |  |  |  | >1 | >1 | > 4000 | > 4000 | > 4000 | > 4000 |  |  |  |
| CO[C@H]1/C=C/O[C@@]2(C)Oc3c(C)c(O)c4c(O)c(c(/C=N/N5CCN(C)CC5)c(O)c4c3C2=O)NC(=O)/C(C)=C\C=C\[C@H](C)[C@H](O)[C@@H](C)[C@@H](O)[C@@H](C)[C@H](OC(C)=O)[C@@H]1C [rifampicin, reference compound] |  |  |  |  |  |  |  |  |  |  | 146 | > 292 | 10 |
